Measurements published in PubChem BioAssay AID652252 (Sanford-Burnham Center for Chemical Genomics, 2013).
Calls of active or inactive are those of the source. No rule for the calls is given here.

system: HT1080 cells viability, ATPLite luminescence, overnight; test: viability of HT1080 fibrosarcoma cells – cell-based, ATPLite luminescence, set 1, cytotoxicity control for MT1-MMP activation inhibitor project, dose response (AID 652252)

Row | Structure (SMILES) | IC50
1 | CN1C(=O)/C(=C\c2cc(N=Nc3ccccc3)ccc2O)SC1=S | > 80 µM (inactive)
2 | C/C(=C/c1oc2ccc(O)cc2c1[N+](=O)[O-])N(C)C | > 80 µM (inactive)
3 | CN=C1C=C/C(=N/N=c2\ccn(O)cc2C)C=C1C | > 80 µM (inactive)
4 | CN(C)c1ccc(C=c2c3ccccc3n3c2c2c([n+]3C)CCCC2)cc1 | > 80 µM (inactive)
5 | Nc1nc(-c2ccccc2)c(N=Nc2cccc3ccccc23)s1 | > 80 µM (inactive)
6 | Nc1ccc(NC(=O)c2ccccc2)c2c1C(=O)c1ccccc1C2=O | > 80 µM (inactive)
7 | CC1=NN(c2ccccc2)C(=O)/C1=C/C=C/C=C/N(C)C | 10.2 µM
8 | CNc1ccccc1C(C)(C)c1cc(-c2cccc(OC)c2)no1 | > 80 µM (inactive)
9 | CCN(CC)c1ccc(C(=C2C=CC(=[N+](CC)CC)C=C2)c2ccc(N(CC)CC)cc2)cc1 | > 80 µM (inactive)
10 | CC1CC(C)CN(C(=O)c2ccc3c(c2NCCO)C(=O)c2ccccc2C3=O)C1 (configuration not stated) | > 80 µM (inactive)
11 | CC1=C/C(=C(/c2cc(C)c(O)c(Br)c2)c2ccccc2S(=O)(=O)O)C=C(Br)C1=O | > 80 µM (inactive)
12 | CCCN1/C(=C2/SC(=S)N(CC)C2=O)C=Cc2ccccc21 | > 80 µM (inactive)
13 | Cc1cccc[n+]1CC(=O)/C=C1\N(C)c2ccccc2C1(C)C | 70.6 µM (inactive)
14 | O=C1c2ccccc2C(=O)c2c(O)c(O)cc(O)c21 | > 80 µM (inactive)
15 | Cc1c(C(=O)OCC(=O)NCC2CCCO2)oc2ccccc12 (configuration not stated) | > 40 µM (inactive)
16 | CCN(CC)c1ccc(/C=C2\C(=O)N(c3nnc(C)c(=O)[nH]3)N=C2C)cc1 | > 80 µM (inactive)
17 | CC1=NN(c2ccccc2)C(=O)C1N=Nc1ccc(N)cc1 (configuration not stated) | > 80 µM (inactive)
18 | O=C(NNc1c2ccccc2nc2ccccc12)c1ccc(Cl)cc1 | > 40 µM (inactive)
19 | CC(=O)Oc1ccc2oc(/C=C/N(C)C)c([N+](=O)[O-])c2c1 | > 80 µM (inactive)
20 | COc1ccccc1C(=O)NC(=S)/C=C1/N(C)c2ccccc2C1(C)C | > 80 µM (inactive)
21 | O=Nc1c(-c2c(O)[nH]c3cc(Br)ccc23)[nH]c2ccccc12 | 66.1 µM (inactive)
22 | O=S(=O)(O)c1cc(Cl)cc(N=Nc2ccc(O)cc2O)c1O | 1.42 µM
23 | CCn1c(=O)c(=O)[nH]c2cc(C(=O)NC3CCCc4ccccc43)ccc21 (configuration not stated) | > 80 µM (inactive)
24 | CN1C2=CC=CC=CC2=[N+](C)C12C=CC(=[N+]([O-])[O-])C=C2[N+](=O)[O-] (configuration not stated) | > 80 µM (inactive)

Row | Structure (SMILES) | IC50
25 | CN1C(=O)/C(=C2/C=Cc3ccccc3N2CCCS(=O)(=O)O)SC1=S | > 80 µM (inactive)
26 | COc1cc(N(C)C)ccc1C=c1c2ccccc2n2c1cc(-c1ccccc1)[n+]2C | 1.43 µM
27 | Cc1cc(N(CCO)CCO)ccc1N=Nc1cc(F)ccc1F | > 80 µM (inactive)
28 | CNc1c(C(=O)O)ccc2c1C(=O)c1ccccc1C2=O | > 80 µM (inactive)
29 | CCCN1C(=O)/C(=C2/C=Cc3ccccc3N2CC)SC1=S | 64.9 µM (inactive)
30 | COc1ccc(C)cc1Nc1nc(-c2c(C)[nH]c3ccccc23)cs1 | > 80 µM (inactive)
31 | CC[n+]1c(/C=C/N(C)c2ccccc2)sc2ccc(Cl)cc21 | > 80 µM (inactive)
32 | COc1ccc(Nc2ccccc2N)cc1 | 2.38 µM
33 | COc1ccc(-c2oc3ccc(-c4ccc(OC)nc4)cc3c2C#CC2(O)CCCCC2)cc1 | > 80 µM (inactive)
34 | Cc1ccccc1C1=C/C(=C(\SS/C(C(=O)c2ccc(OCC(=O)O)c(Cl)c2Cl)=C2\C=C(c3ccccc3C)SS2)C(=O)c2ccc(OCC(=O)O)c(Cl)c2Cl)SS1 | 51.8 µM (inactive)
35 | COc1ccc(C)cc1N=Nc1ccc(O)c2ncccc12 | > 80 µM (inactive)
36 | O=C(NNc1c2ccccc2nc2ccccc12)c1cc2ccccc2cc1O | > 80 µM (inactive)
37 | CCOc1ccc2nc(N=Nc3c(O)[nH]c(=S)[nH]c3=O)sc2c1 | 38.1 µM (inactive)
38 | CNc1ccccc1C(C)(C)c1cc(-c2cccc(Br)c2)no1 | > 80 µM (inactive)
39 | Nc1nc(-c2ccc(Cl)cc2)c(N=Nc2ccc(S(=O)(=O)N3CCOCC3)cc2)s1 | 30.3 µM (inactive)
40 | CNc1ccc2nc3ccccc3[n+](C)c2c1 | 11.4 µM
41 | CC1=NN(c2ccccc2)C(=O)/C1=C/C=C/c1ccc(N(C)C)cc1 | > 80 µM (inactive)
42 | N#CC(C#N)=NNc1ccc([N+](=O)[O-])cc1 | > 80 µM (inactive)
43 | CCOC(=O)C1=C(C)N=c2s/c(=C\c3ccc(OC(C)=O)c(OCC)c3)c(=O)n2C1/C=C/c1ccccc1 (configuration not stated) | 3.54 µM
44 | Cc1ccc(S(=O)(=O)/N=C2\C=C(NS(=O)(=O)c3ccccc3)C(=O)c3ccccc32)c(C)c1 | > 80 µM (inactive)
45 | CC1(C)CCCN(C(=O)c2ccc3c(c2NCCO)C(=O)c2ccccc2C3=O)C1 | > 80 µM (inactive)
46 | O=C1c2cccc(NCCCNCCO)c2C(=O)c2cccc(NCCCNCCO)c21 | > 80 µM (inactive)
47 | C[N+]1=C(/C=C/Nc2ccccc2)C(C)(C)c2ccccc21 | 16.9 µM
